What was measured:
Format in all cases: cell-based
A. baumanii 14501 = assay: MIC, Agar Dilution Method; details: inhibitor 1 μg/mL
Method: (§1) The novel compounds were tested for the in vitro antibacterial activities by the Agar Dilution Method as specified in documents published by NCCLS, now CLSI, USA. (National Committee for Clinical Laboratory Standards (NCCLS). 2003. Approved standard M7-A6. NCCLS, Villanova, Pa.).
(§2) Tazo was also dissolved in same buffer to get a solution of, e.g., 1 mg/mL. Novel penam derivatives described herein were dissolved in water to get a solution of, e.g., 1 mg/mL.
(§3) The novel compounds and Tazo were also tested individually. The bacterial inoculum was prepared by picking 3 to 5 well-isolated bacterial colonies with the same morphological appearance from an 18-24 h old culture and adjusting the turbidity of the saline suspension to 0.5 McFarland Turbidity Standard equivalent to a bacterial population of 1.5×10^8 colony forming units (CFU) per mL of suspension. The suspension was diluted 1:10 in saline (i.e. 0.5 mL suspension+4.5 mL saline) to get a bacterial population of 1.5×10^7 CFU/mL as inoculum. […] The inoculated petridishes were incubated at 35° C. in an ambient atmosphere for 16-20 h.

C. freundii 12301 = assay: MIC, Agar Dilution Method; details: inhibitor 1 μg/mL
Method: as §1, §2, §3

C. sedlakii 12303 = assay: MIC, Agar Dilution Method; details: inhibitor 1 μg/mL
Method: as §1, §2, §3

E. cloacae 11801 = assay: MIC, Agar Dilution Method; details: inhibitor 1 μg/mL
Method: as §1, §2, §3

E. cloacae 11802 = assay: MIC, Agar Dilution Method; details: inhibitor 1 μg/mL
Method: as §1, §2, §3

E. coli 10003 = assay: MIC, Agar Dilution Method; details: inhibitor 1 μg/mL
Method: as §1, §2, §3

E. coli 10004 = assay: MIC, Agar Dilution Method; details: inhibitor 1 μg/mL
Method: as §1, §2, §3

E. coli ATCC 25922 = assay: MIC, Agar Dilution Method; details: inhibitor 1 μg/mL
Method: as §1, §2, §3

E. coli MRO 10002 = assay: MIC, Agar Dilution Method; details: strain 10002 (uncharacterized-ESBL clinical strain); inhibitor 1 μg/mL
Method: as §1, §2, §3

E. coli MRO 10007 = assay: MIC, Agar Dilution Method; details: strain 10007 (uncharacterized-ESBL clinical strain); inhibitor 1 μg/mL
Method: as §1, §2, §3

K. pneumoniae 11006 = assay: MIC, Agar Dilution Method; details: strain 11006 (uncharacterized-ESBL clinical strain); inhibitor 1 μg/mL
Method: as §1, §2, §3

K. pneumoniae 11010 = assay: MIC, Agar Dilution Method; details: inhibitor 1 μg/mL
Method: as §1, §2, §3

K. pneumoniae 11012 = assay: MIC, Agar Dilution Method; details: inhibitor 1 μg/mL
Method: as §1, §2, §3

[1] = test system: K. pneumoniae ATCC 700603; assay: MIC, Agar Dilution Method; details: for MIC of Piperacillin with different concentrations of Tazo or compound of Example 1: K. pneumoniae 700603, SHV-18
Method: as §1, §2, §3

K. pneumoniae MRO 11008 = assay: MIC, Agar Dilution Method; details: strain 11008 (uncharacterized-ESBL clinical strain); inhibitor 1 μg/mL
Method: as §1, §2, §3

[2] = test system: M. catarrhalis ATCC 43617; assay: MIC, Agar Dilution Method; details: inhibitor 1 μg/mL
Method: as §1, §2, §3

[3] = test system: M. catarrhalis ATCC 43627; assay: MIC, Agar Dilution Method; details: inhibitor 1 μg/mL
Method: as §1, §2, §3

M. morganii 13701 = assay: MIC, Agar Dilution Method; details: inhibitor 1 μg/mL
Method: as §1, §2, §3

M. morganii 13702 = assay: MIC, Agar Dilution Method; details: inhibitor 1 μg/mL
Method: as §1, §2, §3

P. aeruginosa 15020 = assay: MIC, Agar Dilution Method; details: inhibitor 1 μg/mL
Method: as §1, §2, §3

P. aeruginosa 15021 = assay: MIC, Agar Dilution Method; details: inhibitor 1 μg/mL
Method: as §1, §2, §3

P. aeruginosa ATCC 27853 = assay: MIC, Agar Dilution Method; details: inhibitor 1 μg/mL
Method: as §1, §2, §3

S. odonifera 13801 = assay: MIC, Agar Dilution Method; details: inhibitor 1 μg/mL
Method: as §1, §2, §3

E. coli BAA-196 (TEM-10) = assay: MIC, Agar Dilution Method, ESBL producing ATCC isolate
Method: as §1, §2, §3

E. coli BAA-197 (TEM-12) = assay: as above
Method: as §1, §2, §3

E. coli BAA-198 (TEM-26) = assay: as above
Method: as §1, §2, §3

E. coli BAA-199 (SHV-3) = assay: as above; details: E. coli BAA-199, SHV-3
Method: as §1, §2, §3

E. coli BAA-200 (SHV-4) = assay: as above; details: E. coli BAA-200, SHV-4
Method: as §1, §2, §3

E. coli BAA-201 (TEM-3) = assay: as above
Method: as §1, §2, §3

E. coli BAA-202 (SHV-1) = assay: as above
Method: as §1, §2, §3

[4] = test system: K. pneumoniae 51503 (TEM-10 & -12); assay: as above
Method: as §1, §2, §3

[5] = test system: P. mirabilis BAA-663 (TEM-89); assay: as above
Method: as §1, §2, §3

## C[C@]1(Cn2ccnn2)[C@H](C(=O)O)N2C(=O)C[C@H]2S1(=O)=O [Tazo]
A. baumanii 14501
  MIC of Piperacillin with Tazo or compounds described herein at 1 μg/mL: 8 µg/mL
C. freundii 12301
  MIC of Piperacillin with Tazo or compounds described herein at 1 μg/mL: 16 µg/mL
C. sedlakii 12303
  MIC of Piperacillin with Tazo or compounds described herein at 1 μg/mL: 1 µg/mL
E. cloacae 11801
  MIC of Piperacillin with Tazo or compounds described herein at 1 μg/mL: 2 µg/mL
E. cloacae 11802
  MIC of Piperacillin with Tazo or compounds described herein at 1 μg/mL: 64 µg/mL
E. coli 10003
  MIC of Piperacillin with Tazo or compounds described herein at 1 μg/mL: 32 µg/mL
E. coli 10004
  MIC of Piperacillin with Tazo or compounds described herein at 1 μg/mL: 16 µg/mL
E. coli ATCC 25922
  MIC of Piperacillin with Tazo or compounds described herein at 1 μg/mL: 2 µg/mL
E. coli MRO 10002
  MIC of Piperacillin with Tazo or compounds described herein at 1 μg/mL: 128 µg/mL
E. coli MRO 10007
  MIC of Piperacillin with Tazo or compounds described herein at 1 μg/mL: 1 µg/mL
K. pneumoniae 11006
  MIC of Piperacillin with Tazo or compounds described herein at 1 μg/mL: 32 µg/mL
K. pneumoniae 11010
  MIC of Piperacillin with Tazo or compounds described herein at 1 μg/mL: 2 µg/mL
K. pneumoniae 11012
  MIC of Piperacillin with Tazo or compounds described herein at 1 μg/mL: 2 µg/mL
[1]; inhibitor 1 μg/mL
  MIC of Piperacillin with different concentrations of Tazo or compound of Example 1: 16 µg/mL
[1]; inhibitor 2 μg/mL
  MIC of Piperacillin with different concentrations of Tazo or compound of Example 1: 16 µg/mL
[1]; inhibitor 4 μg/mL
  MIC of Piperacillin with different concentrations of Tazo or compound of Example 1: 16 µg/mL
[1]; K. pneumoniae ATCC 700603, inhibitor 1 μg/mL
  MIC of Piperacillin with Tazo or compounds described herein at 1 μg/mL: 16 µg/mL
K. pneumoniae MRO 11008
  MIC of Piperacillin with Tazo or compounds described herein at 1 μg/mL: >128 µg/mL
[2]
  MIC of Piperacillin with Tazo or compounds described herein at 1 μg/mL: <0.25 µg/mL
[3]
  MIC of Piperacillin with Tazo or compounds described herein at 1 μg/mL: <0.25 µg/mL
M. morganii 13701
  MIC of Piperacillin with Tazo or compounds described herein at 1 μg/mL: 16 µg/mL
M. morganii 13702
  MIC of Piperacillin with Tazo or compounds described herein at 1 μg/mL: <0.25 µg/mL
P. aeruginosa 15020
  MIC of Piperacillin with Tazo or compounds described herein at 1 μg/mL: 64 µg/mL
P. aeruginosa 15021
  MIC of Piperacillin with Tazo or compounds described herein at 1 μg/mL: 32 µg/mL
P. aeruginosa ATCC 27853
  MIC of Piperacillin with Tazo or compounds described herein at 1 μg/mL: 4 µg/mL
S. odonifera 13801
  MIC of Piperacillin with Tazo or compounds described herein at 1 μg/mL: 2 µg/mL
E. coli BAA-196 (TEM-10); inhibitor 1 μg/mL
  MIC of Piperacillin with different concentrations of Tazo or compound of Example 1: 64 µg/mL
E. coli BAA-196 (TEM-10); inhibitor 2 μg/mL
  MIC of Piperacillin with different concentrations of Tazo or compound of Example 1: 16 µg/mL
E. coli BAA-196 (TEM-10); inhibitor 4 μg/mL
  MIC of Piperacillin with different concentrations of Tazo or compound of Example 1: 4 µg/mL
E. coli BAA-197 (TEM-12); inhibitor 1 μg/mL
  MIC of Piperacillin with different concentrations of Tazo or compound of Example 1: 64 µg/mL
E. coli BAA-197 (TEM-12); inhibitor 2 μg/mL
  MIC of Piperacillin with different concentrations of Tazo or compound of Example 1: 8 µg/mL
E. coli BAA-197 (TEM-12); inhibitor 4 μg/mL
  MIC of Piperacillin with different concentrations of Tazo or compound of Example 1: 4 µg/mL
E. coli BAA-198 (TEM-26); inhibitor 1 μg/mL
  MIC of Piperacillin with different concentrations of Tazo or compound of Example 1: 4 µg/mL
E. coli BAA-198 (TEM-26); inhibitor 2 μg/mL
  MIC of Piperacillin with different concentrations of Tazo or compound of Example 1: 4 µg/mL
E. coli BAA-198 (TEM-26); inhibitor 4 μg/mL
  MIC of Piperacillin with different concentrations of Tazo or compound of Example 1: 4 µg/mL
E. coli BAA-199 (SHV-3); inhibitor 1 μg/mL
  MIC of Piperacillin with different concentrations of Tazo or compound of Example 1: >128 µg/mL
E. coli BAA-199 (SHV-3); inhibitor 2 μg/mL
  MIC of Piperacillin with different concentrations of Tazo or compound of Example 1: >128 µg/mL
E. coli BAA-199 (SHV-3); inhibitor 4 μg/mL
  MIC of Piperacillin with different concentrations of Tazo or compound of Example 1: >128 µg/mL
E. coli BAA-200 (SHV-4); inhibitor 1 μg/mL
  MIC of Piperacillin with different concentrations of Tazo or compound of Example 1: >128 µg/mL
E. coli BAA-200 (SHV-4); inhibitor 2 μg/mL
  MIC of Piperacillin with different concentrations of Tazo or compound of Example 1: >128 µg/mL
E. coli BAA-200 (SHV-4); inhibitor 4 μg/mL
  MIC of Piperacillin with different concentrations of Tazo or compound of Example 1: 4 µg/mL
E. coli BAA-201 (TEM-3); inhibitor 1 μg/mL
  MIC of Piperacillin with different concentrations of Tazo or compound of Example 1: 4 µg/mL
E. coli BAA-201 (TEM-3); inhibitor 2 μg/mL
  MIC of Piperacillin with different concentrations of Tazo or compound of Example 1: 4 µg/mL
E. coli BAA-201 (TEM-3); inhibitor 4 μg/mL
  MIC of Piperacillin with different concentrations of Tazo or compound of Example 1: 2 µg/mL
E. coli BAA-202 (SHV-1); inhibitor 1 μg/mL
  MIC of Piperacillin with different concentrations of Tazo or compound of Example 1: >128 µg/mL
E. coli BAA-202 (SHV-1); inhibitor 2 μg/mL
  MIC of Piperacillin with different concentrations of Tazo or compound of Example 1: >128 µg/mL
E. coli BAA-202 (SHV-1); inhibitor 4 μg/mL
  MIC of Piperacillin with different concentrations of Tazo or compound of Example 1: >128 µg/mL
[4]; inhibitor 1 μg/mL
  MIC of Piperacillin with different concentrations of Tazo or compound of Example 1: >128 µg/mL
[4]; inhibitor 2 μg/mL
  MIC of Piperacillin with different concentrations of Tazo or compound of Example 1: >128 µg/mL
[4]; inhibitor 4 μg/mL
  MIC of Piperacillin with different concentrations of Tazo or compound of Example 1: 16 µg/mL
[5]; inhibitor 1 μg/mL
  MIC of Piperacillin with different concentrations of Tazo or compound of Example 1: 8 µg/mL
[5]; inhibitor 2 μg/mL
  MIC of Piperacillin with different concentrations of Tazo or compound of Example 1: 8 µg/mL
[5]; inhibitor 4 μg/mL
  MIC of Piperacillin with different concentrations of Tazo or compound of Example 1: 4 µg/mL
